We go through one molecule from patent publication US7914827B2, “Use of extracts or extractants of the guajacum types, said extracts or extractants bringing about phosphodiesterase-4 inhibition and method for producing the same” (Max Zeller Soehne AG, priority 2006, dated 2011).

In this test the target is human phosphodiesterase-5 (PDE5) (Homo sapiens, UniProt O76074). Kind of test: PDE5 assay (3H-cGMP as tracer). As to conditions: read-out: Inhibitory activity [%], PDE5. It is filed as biochemical.

In the case of `CCCc1nn(C)c2c(=O)[nH]c(-c3cc(S(=O)(=O)N4CCN(C)CC4)ccc3OCC)nc12` [Sildenafil], the inhibition at 1 pM was 5%, the inhibition at 0.0001 µM worked out at 21%, the inhibition at 0.01 µM is 52% and the inhibition at 1 µM came out at 74%.
